The experiment addresses Human LDHA (Homo sapiens (Human), UniProt P00338). The experiment is described as follows: human LDHA primary biochemical assay (Example 1). As to conditions: biochemical LDHA inhibitory activity, assay of Example 1. The text has this: This example describes a human LDHA primary biochemical assay employed in the characterization of a compound of Formula I in an embodiment of the dislcosure.
Test compounds were placed in a Greiner Bio-One (Monroe, N.C.) 1536-well black solid bottom assay plate. 200 millimolar (mM) Tris HCl, pH 7.4, 100 micromolar (μM) EDTA and 0.01% TWEEN-20™, final concentration, was used as the assay buffer. The LDHA reagent was 2 nanomolar (nM) Human LDHA (Meridian Life Science, Inc., Memphis, Tenn.), final concentration, in assay buffer. The substrate reagent was 0.06 mM NADH and 0.2 mM sodium pyruvate, final concentration, in assay buffer. The resazurin/diaphorase coupling reagent was 0.037 mM resazurin and 0.133 milligrams per milliliter (mg/mL) diaphorase, final concentration, in assay buffer. The inhibition of LDHA activity was measured by fluorescence emission. […]

The structures appear in SMILES notation.

One may read the IC50 as the point on the concentration scale where inhibition reaches its midpoint. Read a low IC50 as greater potency in that assay. For `NS(=O)(=O)c1ccc(Cc2c(-c3ccc(F)c(-c4ccc5c(c4)CCC5)c3)nn(-c3nc(C(=O)O)cs3)c2CC2CC2)cc1F` [Compound 155, 2-(5-(cyclopropylmethyl)-3-(3-(2,3-dihydro-1H-inden-5-yl)-4-fluorophenyl)-4-(3-fluoro-4-sulfamoylbenzyl)-1H-pyrazol-1-yl)thiazole-4-carboxylic acid], the half-inhibitory concentration (IC50) was < 100 nM. Then `NS(=O)(=O)c1ccc(Cc2c(-c3ccc(F)c(-c4nc5ccccc5[nH]4)c3)nn(-c3nc(C(=O)O)cs3)c2CC2CC2)cc1F` [Compound 160, 2-(3-(3-(1H-benzo[d]imidazol-2-yl)-4-fluorophenyl)-5-(cyclopropylmethyl)-4-(3-fluoro-4-sulfamoylbenzyl)-1H-pyrazol-1-yl)thiazole-4-carboxylic acid], with < 100 nM; and `NS(=O)(=O)c1ccc(Cc2c(-c3cccc(-c4ccc(C5CC5)cc4)c3)nn(-c3nc(C(=O)O)cs3)c2CC2CC2)cc1F` [Compound 183, 2-(3-(4′-cyclopropyl-[1,1′-biphenyl]-3-yl)-5-(cyclopropylmethyl)-4-(3-fluoro-4-sulfamoylbenzyl)-1H-pyrazol-1-yl)thiazole-4-carboxylic acid], with < 100 nM; and `CC(C)(C)NC(=O)c1cccc(-c2nn(-c3nc(C(=O)O)cs3)c(CC3CC3)c2Cc2ccc([S+](N)(=O)[O-])cc2)c1` [Compound 188, 2-(3-(3-(tert-butylcarbamoyl)phenyl)-5-(cyclopropylmethyl)-4-(4-sulfamoylbenzyl)-1H-pyrazol-1-yl)thiazole-4-carboxylic acid], with < 100 nM. As for `NS(=O)(=O)c1ccc(Cc2c(-c3cccc(-c4nc5ccccc5[nH]4)c3)nn(-c3nc(C(=O)O)cs3)c2CC2CC2)cc1F` [Compound 189, 2-(3-(3-(1H-benzo[d]imidazol-2-yl)phenyl)-5-(cyclopropylmethyl)-4-(3-fluoro-4-sulfamoylbenzyl)-1H-pyrazol-1-yl)thiazole-4-carboxylic acid], the figure is < 100 nM; as for `COc1ccc(-c2cc(-c3nn(-c4nc(C(=O)O)cs4)c(CC4CC4)c3Cc3ccc(S(N)(=O)=O)c(F)c3)ccc2F)cc1Cl` [Compound 191, 2-(3-(3′-chloro-6-fluoro-4′-methoxy-[1,1′-biphenyl]-3-yl)-5-(cyclopropylmethyl)-4-(3-fluoro-4-sulfamoylbenzyl)-1H-pyrazol-1-yl)thiazole-4-carboxylic acid], < 100 nM. For `CN(C)c1cccc(-c2cc(-c3nn(-c4nc(C(=O)O)cs4)c(CC4CC4)c3Cc3ccc(S(N)(=O)=O)c(F)c3)ccc2F)c1` [Compound 194, 2-(5-(cyclopropylmethyl)-3-(3′-(dimethylamino)-6-fluoro-[1,1′-biphenyl]-3-yl)-4-(3-fluoro-4-sulfamoylbenzyl)-1H-pyrazol-1-yl)thiazole-4-carboxylic acid], the IC50 was < 100 nM. Then `Cc1cc(-c2cc(-c3nn(-c4nc(C(=O)O)cs4)c(CC4CC4)c3Cc3ccc(S(N)(=O)=O)c(F)c3)ccc2F)ccc1F` [Compound 195, 2-(5-(cyclopropylmethyl)-3-(4′,6-difluoro-3′-methyl-[1,1′-biphenyl]-3-yl)-4-(3-fluoro-4-sulfamoylbenzyl)-1H-pyrazol-1-yl)thiazole-4-carboxylic acid], with < 100 nM.

Turning to `NS(=O)(=O)c1ccc(Cc2c(-c3ccc(F)c(C4=CCCO4)c3)nn(-c3nc(C(=O)O)cs3)c2CC2CC2)cc1F` [Compound 197, 2-(5-(cyclopropylmethyl)-3-(3-(4,5-dihydrofuran-2-yl)-4-fluorophenyl)-4-(3-fluoro-4-sulfamoylbenzyl)-1H-pyrazol-1-yl)thiazole-4-carboxylic acid], the IC50 is < 100 nM. Then `Cc1ccc(-c2cccc(-c3nn(-c4nc(C(=O)O)cs4)c(CC4CC4)c3Cc3ccc(S(N)(=O)=O)c(F)c3)c2)cc1` [Compound 198, 2-(5-(cyclopropylmethyl)-4-(3-fluoro-4-sulfamoylbenzyl)-3-(4′-methyl-[1,1′-biphenyl]-3-yl)-1H-pyrazol-1-yl)thiazole-4-carboxylic acid], with < 100 nM; and `N#Cc1cccc(-c2cc(-c3nn(-c4nc(C(=O)O)cs4)c(CC4CC4)c3Cc3ccc(S(N)(=O)=O)c(F)c3)ccc2F)c1` [Compound 200, 2-(3-(3′-cyano-6-fluoro-[1,1′-biphenyl]-3-yl)-5-(cyclopropylmethyl)-4-(3-fluoro-4-sulfamoylbenzyl)-1H-pyrazol-1-yl)thiazole-4-carboxylic acid], with < 100 nM; and `N#Cc1ccc(-c2cc(-c3nn(-c4nc(C(=O)O)cs4)c(CC4CC4)c3Cc3ccc(S(N)(=O)=O)c(F)c3)ccc2F)cc1` [Compound 201, 2-(3-(4′-cyano-6-fluoro-[1,1′-biphenyl]-3-yl)-5-(cyclopropylmethyl)-4-(3-fluoro-4-sulfamoylbenzyl)-1H-pyrazol-1-yl)thiazole-4-carboxylic acid], with < 100 nM.

On to `NS(=O)(=O)c1ccc(Cc2c(-c3ccc(F)c(N4CCCC4=O)c3)nn(-c3nc(C(=O)O)cs3)c2CC2CC2)cc1F` [Compound 202, 2-(5-(cyclopropylmethyl)-3-(4-fluoro-3-(2-oxopyrrolidin-1-yl)phenyl)-4-(3-fluoro-4-sulfamoylbenzyl)-1H-pyrazol-1-yl)thiazole-4-carboxylic acid], for which the IC50 is < 100 nM.

For `Cc1ccc(-c2cccc(-c3nn(-c4nc(C(=O)O)cs4)c(CC4CC4)c3Cc3ccc(S(N)(=O)=O)c(F)c3)c2)nc1` [Compound 203, 2-(5-(cyclopropylmethyl)-4-(3-fluoro-4-sulfamoylbenzyl)-3-(3-(5-methylpyridin-2-yl)phenyl)-1H-pyrazol-1-yl)thiazole-4-carboxylic acid], the IC50 is < 100 nM.

On to `Cc1ccc(-c2cccc(-c3nn(-c4nc(C(=O)O)cs4)c(CC4CC4)c3Cc3ccc(S(N)(=O)=O)c(F)c3)c2)cn1` [Compound 204, 2-(5-(cyclopropylmethyl)-4-(3-fluoro-4-sulfamoylbenzyl)-3-(3-(6-methylpyridin-3-yl)phenyl)-1H-pyrazol-1-yl)thiazole-4-carboxylic acid], for which the IC50 is < 100 nM.

`CC(C)c1ccc(-c2cncc(-c3nn(-c4nc(C(=O)O)cs4)c(CC4CC4)c3Cc3ccc(S(N)(=O)=O)c(F)c3)c2)cc1` [Compound 210, 2-[5-(cyclopropylmethyl)-4-[(3-fluoro-4-sulfamoylphenyl)methyl]-3-[5-(4-isopropylphenyl)pyridin-3-yl]pyrazol-1-yl]-1,3-thiazole-4-carboxylic acid]: the IC50 is < 100 nM.

As to `Cc1cc(-c2cc(-c3nn(-c4nc(C(=O)O)cs4)c(CC4CC4)c3Cc3ccc(S(N)(=O)=O)c(F)c3)ccc2F)ccc1C(C)C` [Compound 213, 2-[5-(cyclopropylmethyl)-3-[4-fluoro-3-(4-isopropyl-3-methylphenyl)phenyl]-4-[(3-fluoro-4-sulfamoylphenyl)methyl]pyrazol-1-yl]-1,3-thiazole-4-carboxylic acid], the concentration for half-maximal inhibition (IC50) was < 100 nM. Then `Cc1ncc(-c2cccc(-c3nn(-c4nc(C(=O)O)cs4)c(CC4CC4)c3Cc3ccc(S(N)(=O)=O)c(F)c3)c2)cn1` [Compound 214, 2-[5-(cyclopropylmethyl)-4-[(3-fluoro-4-sulfamoylphenyl)methyl]-3-[3-(2-methylpyrimidin-5-yl)phenyl]pyrazol-1-yl]-1,3-thiazole-4-carboxylic acid], with < 100 nM.

Consider `CC(C)c1cnc(-c2cccc(-c3nn(-c4nc(C(=O)O)cs4)c(CC4CC4)c3Cc3ccc(S(N)(=O)=O)c(F)c3)c2)s1` [Compound 215, 2-[5-(cyclopropylmethyl)-4-[(3-fluoro-4-sulfamoylphenyl)methyl]-3-[3-(5-isopropyl-1,3-thiazol-2-yl)phenyl]pyrazol-1-yl]-1,3-thiazole-4-carboxylic acid], for which the 50% inhibitory concentration (IC50) is < 100 nM. With `Cc1cnc(-c2cccc(-c3nn(-c4nc(C(=O)O)cs4)c(CC4CC4)c3Cc3ccc(S(N)(=O)=O)c(F)c3)c2)nc1` [Compound 217, 2-[5-(cyclopropylmethyl)-4-[(3-fluoro-4-sulfamoylphenyl)methyl]-3-[3-(5-methylpyrimidin-2-yl)phenyl]pyrazol-1-yl]-1,3-thiazole-4-carboxylicacid], the IC50 was < 100 nM. Then `NS(=O)(=O)c1ccc(Cc2c(-c3cccc(-c4ccc(C(F)(F)F)cc4)c3)nn(-c3nc(C(=O)O)cs3)c2CC2CC2)cc1F` [Compound 219, 2-(5-(cyclopropylmethyl)-4-(3-fluoro-4-sulfamoylbenzyl)-3-(4′-(trifluoromethyl)-[1,1′-biphenyl]-3-yl)-1H-pyrazol-1-yl)thiazole-4-carboxylic acid], with < 100 nM. Then `NS(=O)(=O)c1ccc(Cc2c(-c3cccc(-c4ccc5c(c4)CCC5)c3)nn(-c3nc(C(=O)O)cs3)c2CC2CC2)cc1F` [Compound 220, 2-(5-(cyclopropylmethyl)-3-(3-(2,3-dihydro-1H-inden-5-yl)phenyl)-4-(3-fluoro-4-sulfamoylbenzyl)-1H-pyrazol-1-yl)thiazole-4-carboxylic acid], with < 100 nM.

Consider `NS(=O)(=O)c1ccc(Cc2c(-c3cccc(-c4ccc(C5CC5)cc4)c3)nn(-c3nc(C(=O)O)cs3)c2CC2CC2)cc1F` [Compound 222, 2-(3-(4′-cyclopropyl-[1,1′-biphenyl]-3-yl)-5-(cyclopropylmethyl)-4-(3-fluoro-4-sulfamoylbenzyl)-1H-pyrazol-1-yl)thiazole-4-carboxylic acid], for which the IC50 was in the range of 100 to 1000 nM. As for `Cc1cc(-c2cccc(-c3nn(-c4nc(C(=O)O)cs4)c(CC4CC4)c3Cc3ccc(S(N)(=O)=O)c(F)c3)c2)ccc1O` [Compound 228, 2-(5-(cyclopropylmethyl)-4-(3-fluoro-4-sulfamoylbenzyl)-3-(4′-hydroxy-3′-methyl-[1,1′-biphenyl]-3-yl)-1H-pyrazol-1-yl)thiazole-4-carboxylic acid], the figure is < 100 nM.

Source of the values: patent US11752138B2 (VANDERBILT UNIVERSITY, priority 2020, dated 2023).
